# Reference: publication PMC11359040, “Long-Circulating and Brain-Targeted Liposomes Loaded with Isoliquiritigenin: Formation, Characterization, Pharmacokinetics, and Distribution” (Pharmaceutics, 2024)
# Experiment: Concentration of free isoliquiritigenin in saturated aqueous phase by HPLC
# Type: physicochemical
# Description: A total of 100 μL of ISL-LP solution was added to 900 μL of methanol and then subjected to vortex shaking for 10 min to disrupt the liposome structure. Following centrifugation at a speed of 13,000 rpm and a temperature of 4 °C for 10 min, 100 μL of the supernatant was diluted with methanol and then filtered through 0.22 μm membranes. Subsequently, 15 μL of the solution was injected into a high-performance liquid chromatography system (HPLC, Agilent 1100, Santa Clara, CA, USA) to detect the concentration of ISL according to the method previously reported. Before these steps, we quantified the concentration of free isoliquiritigenin in the saturated aqueous phase by HPLC. […] The drug loading (DL) and EE of ISL-LP were calculated according to Equations (1) and (2):EE (%) = (Wloaded/Wadded) × 100%(1) DL (%) = (Wloaded/Wtotal) × 100%(2) where Wloaded represents the amount of ISL loaded, Wadded denotes the weight of ISL added, and Wtotal signifies the weight of liposomes.
smiles,measurement,value
"O=C(/C=C/c1ccc(O)cc1)c1ccc(O)cc1O [isoliquiritigenin, Isoliquiritigenin]",concentration of free isoliquiritigenin in the saturated aqueous phase,below the detection limit
